Measurements as given in paper PMC6211254, “Determination of the inhibitory effects of N-methylpyrrole derivatives on glutathione reductase enzyme” (Journal of Enzyme Inhibition and Medicinal Chemistry, 2018).
Several values for one entry are separate records, joined by “and”; a condition that tells them apart may be missing. Equal values may be shown once.

molecular target: T1, GR from baker's yeast (S. cerevisiae) (Saccharomyces cerevisiae, UniProt P41921); test: Glutathione reductase inhibition (Beutler's method, NADPH and GSSG as substrates); assay type: biochemical; details: 25 °C, pH 8.0; mean from at least three determinations, errors ±3%; read-out: IC50 values obtained from regression analysis graphs for GR enzyme
T1 sequence (P41921 17-483 limits assumed): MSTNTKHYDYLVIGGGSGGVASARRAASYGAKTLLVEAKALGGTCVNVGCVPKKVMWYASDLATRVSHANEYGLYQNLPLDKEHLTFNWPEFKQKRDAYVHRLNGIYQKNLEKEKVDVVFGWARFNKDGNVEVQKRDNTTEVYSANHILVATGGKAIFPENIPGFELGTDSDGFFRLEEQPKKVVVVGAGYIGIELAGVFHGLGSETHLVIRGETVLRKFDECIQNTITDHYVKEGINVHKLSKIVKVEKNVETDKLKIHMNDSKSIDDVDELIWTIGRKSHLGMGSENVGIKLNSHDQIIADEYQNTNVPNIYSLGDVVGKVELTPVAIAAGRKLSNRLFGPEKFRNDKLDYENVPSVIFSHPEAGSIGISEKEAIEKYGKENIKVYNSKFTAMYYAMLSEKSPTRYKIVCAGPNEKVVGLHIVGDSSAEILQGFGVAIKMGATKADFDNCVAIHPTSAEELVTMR
Protocol: Activity of the glutathione enzyme was measured by Beutler’s method[22] in which one enzyme unit is defined as the oxidation of […] NADPH per min under the assay condition at 25 °C, pH 8.0. Different concentrations of the inhibitors were applied to the enzyme solutions and all compounds were tested in triplicate at each concentration used[18–21]. Control cuvette activity was assumed as 100% in the absence of inhibitor. A graphic of activity-versus inhibitor concentration was drawn for each compound (Figure 3).
In this work, we reported GR inhibitory capacity of N-methylpyrrole derivatives (8a-r). As known, glutathione reductase has been purified from various organisms and the influences of drugs, pesticides and various chemicals on GR activity have been investigated. In the current study, GR from baker's yeast (S. cerevisiae) was used and the inhibitory potentials of the synthetized compounds were determined using Beutler method with NADPH and GSSG as substrates and further kinetic studies were performed using the same method.

Going from `Cn1cccc1-c1ccccc1` [Compound 8a] to `Cc1cccc(-c2cccn2C)c1` [Compound 8c], the IC50 falls from 4.94 µM to 1.66 µM (3-fold). The second is the more potent here.

`Cc1ccc(-c2cccn2C)cc1` [Compound 8b] and `Cn1cccc1-c1ccc(Br)cc1` [Compound 8e] are within 1.5-fold of each other in IC50: 1.4 µM for the first, 1.5 µM for the second.

First: Cc1ccccc1-c1cccn1C [Compound 8d]
Second: COc1ccccc1-c1cccn1C [Compound 8n]
The IC50 of the first is 1.5-fold higher: 1.05 µM for the first, 0.678 µM for the second.

`Cn1cccc1-c1ccc(F)cc1` [Compound 8i] and `Cn1cccc1-c1ccc(C#N)cc1` [Compound 8r] are within 1.5-fold of each other in IC50: 1.42 µM for the first, 1.79 µM for the second.

Going from `Cn1cccc1-c1ccccc1[N+](=O)[O-]` [Compound 8m] to `Cn1cccc1-c1ccc(OC(F)(F)F)cc1` [Compound 8q], the IC50 rises from 0.104 µM to 0.846 µM (8.1-fold).

Compound `O=NN(CCCl)C(=O)NCCCl` [N,N-bis(2-chloroethyl)-N-nitrosourea, reference compound] has an IC50 of 645 µM.

With `COc1ccc(-c2cccn2C)cc1` [Compound 8o] the IC50 was 0.678 µM and 1.44 µM.
